The source of these data is patent EP0357332A2, “Renin inhibitors useful for the treatment of aids by inhibition of HIV protease” (MERCK & CO. INC., priority 1988, dated 1990).

Assay [1] addresses T1, synthetic protease [amino acid residues 69-167 of the pol open reading frame] (Human immunodeficiency virus type 1 group M subtype B, UniProt P03366).
T1 construct: amino acid residues 69-167 of the pol open reading frame in Ratner, L. et al, Nature, 313, 277 (1985); made in house; host or cells: chemical synthesis (Merrifield solid-phase), no expression host
Description: Assay for inhibition of synthetic viral protease with peptide substrate Val-Ser-Gln-Asn-Tyr-Pro-Ile-Val (HPLC). The assay is classed as biochemical, HIV. As to conditions: pH 5.5, 30°C, 1 hr. The procedure: Inhibition studies of the reaction of the synthetic protease [amino acid residues 69-167 of the pol open reading frame in Ratner, L. et al, Nature, 313, 277 (1985) and synthesized by Merrifield solid-phase synthesis] with a peptide substrate [Val-Ser-Gln-Asn-Tyr-Pro-Ile-Val, 2 mg/mL when the reaction is initiated] were in 50 mM Na acetate, pH 5.5, at 30°C for 1 hr. Various concentrations of inhibitor in 1.0 µl DMSO were added to 36 µl of assay solution and the reaction initiated by the addition of 4 ul (1.6 µg) of synthetic protease. The reaction was quenched with 160 ul of 12% acetic acid. Products of the reaction were separated by HPLC (VYDAC wide pore 5 cm C-18 reverse phase, acetonitrile gradient, 0.1% trifluoroacetic acid). The extent of inhibition of the reaction was determined from the peak heights of the products. HPLC of the products, independently synthesized, provided quantitation standards and confirmation of the product composition.

Assay [2] concerns the target T2, synthetic viral protease (Human immunodeficiency virus type 1 group M subtype B, UniProt P03366).
T2 construct: amino acid residues 69-167 of the pol open reading frame in Ratner, L. et al, Nature, 313, 277 (1985); made in house; host or cells: chemical synthesis (Merrifield solid-phase), no expression host
The experiment in a line: Inhibition of beta-casein hydrolysis by synthetic viral protease (14C-beta-casein, TCA soluble counts). The class given is biochemical, HIV. As to conditions: 14C-beta-casein substrate, 4 hours. The procedure:
Inhibition of the synthetic viral protease reaction, of Example 2, with ¹⁴C - beta-casein as substrate in lieu of peptide substrates, was performed. Beta-casein (Sigma) was dialysed overnight at 4°C in 40 mM KPO₄, pH 7.0. Four microliters of the substrate (0.31 mg/ml) are used in each 40 µl reaction. After reaction with the protease for 4 hours, 10 µl of 10% bovine serum albumin and 500 µl of 10% trichloroacetic acid are added, the sample placed on ice for 30 min and centrifuged for 10 min at 15,000 g. From the supernatant a 300 µl aliquot is withdrawn and diluted into 7 ml liquid scintillation cocktail. Typical background level of TCA soluble counts (no enzyme added) is 200 and no inhibitor samples give a net signal of 1000 cpm.

Setting [3] is: Inh. Conc. 0.01 µM, listed as Cmpd B.
Where [4] appears, read: Inh. Conc. 0.1 µM, listed as Cmpd B.
Setting [5] is: Inh. Conc. 1 µM, listed as Cmpd B.
Where [6] appears, read: Inh. Conc. 0.01 µM, listed as Cmpd A.
Setting [7] is: Inh. Conc. 0.1 µM, listed as Cmpd A.
Setting [8] is: Inh. Conc. 1 µM, listed as Cmpd A.

As to `CC(C)C[C@H](NC(=O)C(Cc1ccccc1)C[C@H](O)[C@H](Cc1ccccc1)NC(=O)[C@H](Cc1ccccc1)NC(=O)[C@H](Cc1ccccc1)NC(=O)OC(C)(C)C)C(=O)N[C@@H](Cc1ccccc1)C(N)=O` (single isomer, unassigned) [Compound B, N′-(1,1-Dimethylethoxycarbonyl)-Phe-Phe-5(S)-Amino-4(S)-Hydroxy-6-Phenyl-2(S or R)-(Phenylmethyl)Hexanoyl-Leu-Phe-Amide], the “PERCENT INHIBITION” value turned out to be 20% in assay [1] (Inh. Conc. 0.001 µM); 60% in assay [1] (setting [3]); 100% in assay [1] (setting [4]); 100% in assay [1] (setting [5]); 100% in assay [1] (Inh. Conc. 10 µM); 100% in assay [1] (Inh. Conc. 100 µM). For the same compound, the “PERCENT INHIBITION” value was determined as 20% in assay [2] (Inh. Conc. 0.001 µM); 67% in assay [2] (setting [3]); 97% in assay [2] (setting [4]); 95% in assay [2] (setting [5]); 91% in assay [2] (Inh. Conc. 10 µM, listed as Cmpd B); 60% in assay [2] (Inh. Conc. 100 µM, listed as Cmpd B).
Take `CC(C)C[C@H](NC(=O)C(Cc1ccccc1)C[C@H](O)[C@H](Cc1ccccc1)NC(=O)[C@H](Cc1ccccc1)NC(=O)[C@H](Cc1ccccc1)NC(=O)OC(C)(C)C)C(=O)N[C@@H](Cc1ccccc1)C(N)=O` (single isomer, unassigned) [A, N′-(1,1-Dimethylethoxycarbonyl)-Phe-Phe-5(S)-Amino-4(S)-Hydroxy-6-Phenyl-2(R or S)-(Phenylmethyl)Hexanoyl-Leu-Phe-Amide]: the “PERCENT INHIBITION” value came out at 0% in assay [1] (setting [6]); 20% in assay [1] (setting [7]); 40% in assay [1] (setting [8]); 100% in assay [1] (Inh. Conc. 100 µM); 0% in assay [2] (setting [6]); 14% in assay [2] (setting [7]). Further, the “PERCENT INHIBITION” value in assay [2] (setting [8]) is recorded as 82%; in assay [2] (Inh. Conc. 10 µM, listed as Cmpd A), 65%; in assay [2] (Inh. Conc. 100 µM, listed as Cmpd A), 97%.
